Laboratory results as given in PubChem BioAssay AID328 (DTP/NCI, 2004).
“And” between values parts separate entries of the source, which are not always exact repeats. Equal values may be shown once. Toxic doses and inconclusive results are not listed.

System: BDF1 mice, P388 leukemia ip, median survival T/C
Experiment: NCI In Vivo Anticancer Drug Screen. Data for tumor model P388 Leukemia (intraperitoneal) in B6D2F1 (BDF1) mice
Details: endpoint: median survival time, higher = longer survival
Procedure: The antitumor activity of compounds was measured in mice bearing transplantable tumors. Survival or tumor size were measured and the results are expressed as the measurement made in the treated group (T) divided by the measurement made in the vehicle treated control group (C). The tumor model used in this assay is P388 Leukemia (intraperitoneal) in B6D2F1 (BDF1) mice

[1] = dose: 25.0 mg/kg/injection, schedule: Q01DX009 (ip), vehicle: saline with Tween-80
[2] = dose: 50.0 mg/kg/injection, schedule: Q01DX009 (ip), vehicle: saline with Tween-80
[3] = dose: 100.0 mg/kg/injection, schedule: Q01DX009 (ip), vehicle: saline with Tween-80
[4] = dose: 200.0 mg/kg/injection, schedule: Q01DX009 (ip), vehicle: saline with Tween-80
[5] = dose: 100.0 mg/kg/injection, schedule: Q01DX001 (ip), vehicle: Klucel (hydroxypropylcellulose) (HPC)
[6] = dose: 200.0 mg/kg/injection, schedule: Q01DX001 (ip), vehicle: Klucel (hydroxypropylcellulose) (HPC)
[7] = dose: 400.0 mg/kg/injection, schedule: Q01DX001 (ip), vehicle: Klucel (hydroxypropylcellulose) (HPC)
[8] = dose: 12.5 mg/kg/injection, schedule: Q01DX009 (ip), vehicle: saline
[9] = dose: 25.0 mg/kg/injection, schedule: Q01DX009 (ip), vehicle: saline
[10] = dose: 200.0 mg/kg/injection, schedule: Q01DX009 (ip), vehicle: Klucel (hydroxypropylcellulose) (HPC)

OCCC1(CCO)CCCCC1
T/C (dose: 10.0 mg/kg/injection, schedule: Q01DX009 (ip), vehicle: saline with Tween-80): 100 % of control | T/C (dose: 20.0 mg/kg/injection, schedule: Q01DX009 (ip), vehicle: saline with Tween-80): 105 % of control | T/C (dose: 40.0 mg/kg/injection, schedule: Q01DX009 (ip), vehicle: saline with Tween-80): 110 % of control | T/C (dose: 50.0 mg/kg/injection, schedule: Q04DX003 (ip), vehicle: saline with Tween-80): 109 % of control | T/C (dose: 100.0 mg/kg/injection, schedule: Q04DX003 (ip), vehicle: saline with Tween-80): 100 % of control

N#Cc1cc([N+](=O)[O-])ccc1Cl
T/C [1]: 90 % of control | T/C [2]: 105 % of control | T/C [3]: 105 % of control

C(=N\c1ncn[nH]1)/c1ccco1
T/C [2]: 111 % of control | T/C [3]: 99 % of control | T/C [4]: 102 % of control

CN=c1ccc2nc3ccc(N)cc3sc-2c1
T/C (dose: 50.0 mg/kg/injection, schedule: Q01DX005 (ip), vehicle: saline with Tween-80): 103 % of control

CCOC(=O)/C(C#N)=C\c1cc(=O)c(OC)co1
T/C [5]: 90 % of control | T/C [6]: 100 % of control | T/C [7]: 100 % of control

COc1cc([C@@H]2c3cc4c(c(O)c3C[C@H]3COC(=O)[C@@H]32)OCO4)cc(OC)c1O
T/C (dose: 0.12 mg/kg/injection, schedule: Q01DX010 (ip), vehicle: carboxymethylcellulose (CMC)): 105 % of control | T/C (dose: 0.25 mg/kg/injection, schedule: Q01DX010 (ip), vehicle: carboxymethylcellulose (CMC)): 100 % of control | T/C (dose: 0.5 mg/kg/injection, schedule: Q01DX001 (ip), vehicle: other): 121 % of control | T/C (dose: 0.5 mg/kg/injection, schedule: Q01DX010 (ip), vehicle: other): 118 % of control | T/C (dose: 1.0 mg/kg/injection, schedule: Q01DX010 (ip), vehicle: carboxymethylcellulose (CMC)): 100 % of control and 123 % of control | T/C (dose: 30.0 micrograms/kg/injection, schedule: Q01DX010 (ip), vehicle: other): 110 % of control | T/C (dose: 60.0 micrograms/kg/injection, schedule: Q01DX010 (ip), vehicle: other): 110 % of control

COc1cccc2c1C(=O)c1c(O)c3c(c(O)c1C2=O)C[C@@](O)(C(C)=O)C[C@@H]3OC1CC(N(Cc2ccccc2)Cc2ccccc2)C(O)C(C)O1 (stereo partly drawn)
T/C (dose: 37.5 mg/kg/injection, schedule: Q04DX003 (ip), vehicle: water): 227 % of control | T/C (dose: 150.0 mg/kg/injection, schedule: Q04DX003 (ip), vehicle: water): 100 % of control | T/C (dose: 300.0 mg/kg/injection, schedule: Q04DX003 (ip), vehicle: water): 102 % of control

Cc1nccn1C[c-]1[c-][c-][c-][c-]1.[Fe].[c-]1[c-][c-][cH-][c-]1
T/C (dose: 6.25 mg/kg/injection, schedule: Q01DX009 (ip), vehicle: saline): 108 % of control | T/C [8]: 99 % of control | T/C [9]: 100 % of control

CC(=O)c1cccc(N)c1
T/C [5]: 104 % of control | T/C (dose: 100.0 mg/kg/injection, schedule: Q01DX009 (ip), vehicle: Klucel (hydroxypropylcellulose) (HPC)): 100 % of control | T/C (dose: 100.0 mg/kg/injection, schedule: Q04DX003 (ip), vehicle: Klucel (hydroxypropylcellulose) (HPC)): 100 % of control | T/C [6]: 100 % of control | T/C [10]: 91 % of control | T/C (dose: 200.0 mg/kg/injection, schedule: Q04DX003 (ip), vehicle: Klucel (hydroxypropylcellulose) (HPC)): 109 % of control | T/C [7]: 113 % of control | T/C (dose: 400.0 mg/kg/injection, schedule: Q01DX009 (ip), vehicle: Klucel (hydroxypropylcellulose) (HPC)): 95 % of control | T/C (dose: 400.0 mg/kg/injection, schedule: Q04DX003 (ip), vehicle: Klucel (hydroxypropylcellulose) (HPC)): 109 % of control

C=CCN1C=CC(=C/C=C(\C#N)C(=O)OCC)C=C1
T/C [2]: 99 % of control | T/C [3]: 91 % of control | T/C [4]: 99 % of control

CCCC(=O)Nc1ccc([N+](=O)[O-])cc1OC
T/C [3]: 90 % of control | T/C [4]: 100 % of control | T/C (dose: 400.0 mg/kg/injection, schedule: Q01DX009 (ip), vehicle: saline with Tween-80): 100 % of control

c1cc[c]([Pb]([c]2ccccc2)[c]2ccccc2)cc1.c1cc[c]([Pb]([c]2ccccc2)[c]2ccccc2)cc1
T/C (dose: 3.13 mg/kg/injection, schedule: Q01DX009 (ip), vehicle: saline with Tween-80): 109 % of control | T/C (dose: 6.25 mg/kg/injection, schedule: Q01DX009 (ip), vehicle: saline with Tween-80): 104 % of control | T/C (dose: 12.5 mg/kg/injection, schedule: Q01DX009 (ip), vehicle: saline with Tween-80): 101 % of control | T/C [1]: 104 % of control

C[NH-].C[NH-].[Br][Pt+2][Br]
T/C (dose: 6.0 mg/kg/injection, schedule: Q04DX003 (ip), vehicle: other): 170 % of control | T/C (dose: 12.0 mg/kg/injection, schedule: Q04DX003 (ip), vehicle: other): 208 % of control | T/C (dose: 12.5 mg/kg/injection, schedule: Q04DX003 (ip), vehicle: other): 212 % of control

O=[N+]([O-])c1cc2no[n+]([O-])c2cc1N1CCN(c2cc3c(cc2[N+](=O)[O-])no[n+]3[O-])CC1
T/C (dose: 15.0 mg/kg/injection, schedule: Q01DX009 (ip), vehicle: saline with Tween-80): 97 % of control | T/C (dose: 30.0 mg/kg/injection, schedule: Q01DX009 (ip), vehicle: saline with Tween-80): 98 % of control | T/C (dose: 60.0 mg/kg/injection, schedule: Q01DX009 (ip), vehicle: saline with Tween-80): 97 % of control

CS(=O)(=O)OCCN(CCOS(C)(=O)=O)c1ccccc1
T/C (dose: 16.5 mg/kg/injection, schedule: Q04DX003 (ip), vehicle: saline with Tween-80): 150 % of control | T/C (dose: 16.5 mg/kg/injection, schedule: Q04DX003 (ip), vehicle: saline): 113 % of control | T/C (dose: 37.5 mg/kg/injection, schedule: Q04DX003 (ip), vehicle: saline with Tween-80): 222 % of control

COc1cc(-c2ccc(O)cc2)c(OC)c(O)c1-c1ccc(O)c(O)c1
T/C (dose: 1.25 mg/kg/injection, schedule: Q01DX009 (ip), vehicle: Klucel (hydroxypropylcellulose) (HPC)): 97 % of control | T/C (dose: 2.5 mg/kg/injection, schedule: Q01DX009 (ip), vehicle: Klucel (hydroxypropylcellulose) (HPC)): 96 % of control | T/C (dose: 5.0 mg/kg/injection, schedule: Q01DX009 (ip), vehicle: Klucel (hydroxypropylcellulose) (HPC)): 98 % of control | T/C (dose: 10.0 mg/kg/injection, schedule: Q01DX009 (ip), vehicle: Klucel (hydroxypropylcellulose) (HPC)): 95 % of control | T/C (dose: 20.0 mg/kg/injection, schedule: Q01DX009 (ip), vehicle: Klucel (hydroxypropylcellulose) (HPC)): 97 % of control | T/C (dose: 40.0 mg/kg/injection, schedule: Q01DX009 (ip), vehicle: Klucel (hydroxypropylcellulose) (HPC)): 97 % of control

Cc1ccc(S(=O)(=O)/C=C/c2ccccc2)cc1
T/C [2]: 100 % of control | T/C [3]: 100 % of control | T/C [4]: 103 % of control

Nc1cc(Cl)ncn1
T/C (dose: 60.0 mg/kg/injection, schedule: Q01DX009 (ip), vehicle: saline): 100 % of control | T/C (dose: 90.0 mg/kg/injection, schedule: Q01DX009 (ip), vehicle: saline): 97 % of control | T/C (dose: 175.0 mg/kg/injection, schedule: Q01DX009 (ip), vehicle: saline): 97 % of control | T/C [10]: 95 % of control

CCCCNC(C)(C)CS
T/C (dose: 3.12 mg/kg/injection, schedule: Q04DX003 (ip), vehicle: saline): 106 % of control | T/C (dose: 6.25 mg/kg/injection, schedule: Q04DX003 (ip), vehicle: saline): 115 % of control | T/C [8]: 116 % of control | T/C (dose: 12.5 mg/kg/injection, schedule: Q04DX003 (ip), vehicle: saline): 108 % of control | T/C [9]: 109 % of control | T/C (dose: 25.0 mg/kg/injection, schedule: Q04DX003 (ip), vehicle: saline): 97 % of control | T/C (dose: 50.0 mg/kg/injection, schedule: Q04DX003 (ip), vehicle: saline): 101 % of control | T/C (dose: 100.0 mg/kg/injection, schedule: Q04DX003 (ip), vehicle: saline): 92 % of control

CN(C)CCC(=O)c1ccc(Cl)cc1
T/C (dose: 18.8 mg/kg/injection, schedule: Q01DX009 (ip), vehicle: saline with Tween-80): 96 % of control | T/C (dose: 37.5 mg/kg/injection, schedule: Q01DX009 (ip), vehicle: saline with Tween-80): 93 % of control | T/C (dose: 75.0 mg/kg/injection, schedule: Q01DX009 (ip), vehicle: saline with Tween-80): 113 % of control

CC(C)c1nsc2c1C(=O)NC(C(C)(C)C)N2 (stereo not drawn)
T/C [2]: 109 % of control | T/C [3]: 89 % of control | T/C [4]: 95 % of control
